Reference: a melting point compilation (Tetko et al.; mined from patent text by program, amines drawn as free bases though some values may be those of a salt)

SMILES	melting point [°C]
O=S1NC(CC2=C(Cl)c3ccccc3CC2)=NO1 (stereo unspecified)	90.5 to 91.5
CCCn1c(=O)c2[nH]c(-c3ccsc3)nc2n(CCC)c1=O	> 250
C[C@]12CC[C@@H]3C4=C(CC[C@H]3[C@@H]1CCC21CC(O)CO1)CC(=O)CC4 (stereo partly specified)	118 to 123
CC(C)(C)c1cc(OCCCc2nnn[nH]2)cc(C(C)(C)C)c1O	179 to 180
OC(Cn1cncn1)(c1ccc(F)cc1F)C(F)(F)C(F)(F)F (stereo unspecified)	95 to 96
CC1(C)SC(c2ccc(O)cc2)NC1C(=O)O (stereo unspecified)	207 to 209
O=C1N2CCc3ccsc3C23SC1(c1ccccc1)CC3[N+](=O)[O-] (stereo unspecified)	192 to 196
CC(C)(C)OC(=O)N(O)C(=O)CN	115 to 117
COc1cc(C)c(CCCCCCCCCCCCCCCC(=O)O)c(O)c1OC	45 to 46
COc1cc(C(C#Cc2cnc(N)nc2N)OC)cc(OC)c1OC (stereo unspecified)	184 to 186
Cc1cc(N2CC=CCC2)nn2cnnc12	103 to 106
Cc1nnc(C(C)NC(=O)CC(C)C)c(=O)[nH]1 (stereo unspecified)	224 to 226
CC[C@H](C)[C@H](NC(=O)O[C@@H](CC(C)C)C(=O)O)C(=O)NC1CCCCC1	193 to 195
CC(=O)N1CCN(C2=CC(C)(C)Oc3ccc(C#N)cc32)C1=NC#N	200 to 201
CC(=O)NC1CCCCc2sccc21 (stereo unspecified)	179 to 180
O=C1C=CC(O)(c2cccs2)C=C1	103
NC1=Nc2ccc(-c3cccc(Cl)c3)cc2C12CCCCC2	118 to 120
CC(C)C(Br)C(=O)NCC(=O)O (stereo unspecified)	138 to 139
COc1cc2c(cc1Nc1ncc(Cl)c(Nc3ccc(N4CCOCC4)cc3OC)n1)CCN(CCNC(C)=O)CC2	50 to 65
O=C(O)c1cn(CCO)c2cc(Cl)c(F)cc2c1=O	266
CCCc1cccc(C(C)(C)C)c1O	89 to 90
CC(C)(C)N(C=O)N=NNC=O	103 to 105
Cc1cc(C2=NNC(=O)Cc3cc4c(cc32)OCO4)ccc1[N+](=O)[O-]	275 to 277
CC(=O)OC1NC(=O)C1C(C)O[Si](C)(C)C(C)(C)C(C)C (stereo unspecified)	80 to 81

SMILES	melting point [°C]
CN1C(=S)C(C)(C)N=C1SCc1ccccc1N(C)C	76 to 78
COC(=O)c1sc(C(=O)OC)c(-c2ccoc2)c1O	102
CC(C)c1nsc(N=C(C#N)N(C)C)c1C#N	78 to 79
O=C1Nc2cccc(Cl)c2C12COc1cc3c(cc12)OCO3 (stereo unspecified)	175 to 185
NS(=O)(=O)c1cc2nc[nH]c2cc1Cl	244
C[C@@H]1CN(Cc2ccccc2)C[C@H]1C(=O)NC1CC1 (relative stereo)	81 to 83
O=C1NCC(=O)c2[nH]cnc2N1	> 300
CCOC(=O)C1=CNC2=C(C(=O)OC)CCC(C)N2C1=O (stereo unspecified)	136 to 139
CCOC(=O)/C=C/[C@H]1O[C@@H](n2cc(CC)c(=O)[nH]c2=O)C[C@@H]1OC(C)=O	132 to 133
Nc1cc2c(cc1[N+](=O)[O-])CCCCC2	137 to 139
CC(=O)CCS(=O)(=O)C(c1ccc(Cl)cc1)c1ccc(Cl)cc1	103 to 105
O=[N+]([O-])C=C(NCCO)NCCO	145 to 146
CCCCCCCCCCCCCCC/C=C/C=O	35
CNC(=S)Nc1ccccc1	113
O=S1(=O)N=CN(C2CC2)c2ccc(F)c(F)c21	205 to 206
CC(C)(C)OC(=O)N(CC#N)CCN(CC#N)C(=O)OC(C)(C)C	112 to 113
CS(=O)(=O)N1CCC(NC(=O)Nc2ccc(OC(F)(F)F)cc2)CC1	233 to 234
CCN(C)C(=O)NC(=N)SC	74 to 76
Cn1nnn(-c2c(Cl)ccc(C(=O)O)c2Cl)c1=O	221 to 225
Cc1cn(COCCO)c(=O)[nH]c1=O	138 to 140
CCCc1c(OCCCCCOc2c(C)c(C)c3c(c2C)CC[C@](C)(C(=O)O)O3)ccc(C(C)=O)c1O	92.5 to 95
C=CCON=C(C(=O)O)C1=CSCCO1	119 to 121
O=c1[nH]c2cc(Cl)cc(Cl)c2c(=O)n1Cc1cccc(F)c1	267 to 270
NS(=O)(=O)c1ccc(-c2cn(-c3nc(-c4cccc(Cl)c4)cc(C(F)(F)F)n3)cn2)s1	280

Next, values leading:

melting point [°C]	SMILES
217 to 222	CC(=O)SCC(Cc1ccccc1)C(=O)Nc1cc(C(=O)O)ccc1N1CCCC1 (stereo unspecified)
100	O=C(O)Cc1ccc(OCCNC(=O)C2Cc3ccccc3N2S(=O)(=O)c2ccc(-c3cc(C(F)(F)F)ccc3Cl)cc2)c(F)c1 (stereo unspecified)
172 to 174	CCOC(=O)Cn1nc(-c2ccccc2O)nc1-c1ccccc1O
107 to 109	COC(=O)CCCC#Cc1cc(Cl)ccc1NS(=O)(=O)c1c(C)noc1C
140 to 142	CCOC(=O)c1cnc2n(c1=O)-c1ccccc1N(C(=O)OCC)C2
82 to 83	COc1ccc(CC(C#N)c2cc(OC)c(OC)c(OC)c2)cc1 (stereo unspecified)
224 to 226	CCn1c2ccccc2c2oc(C(N)=O)cc(=O)c21
68 to 70	CCN(CC)c1nc(Cl)nc2ccccc12
217 to 220	CS(=O)(=O)CC(=O)Nc1c(C(=O)c2ccccc2)[nH]c2cc(Cl)ccc12
70 to 80	COC1(c2cc(F)cc(OCc3nc(-c4ccccc4)c(-c4ccc(S(N)(=O)=O)cc4)o3)c2)CCOCC1
184 to 186	COc1cccc(N2CCN(CCn3c(=O)[nH]c4cscc4c3=O)CC2)c1
90.5 to 91	COc1ccc(C(=O)N2CCCC2=O)cc1OC(=O)c1ccccc1
112 to 115	O=C(c1ccc(-c2ccccc2)cc1)c1cccnc1
139 to 141	CCOC(=O)C(=O)c1ccc2c(c1)CCO2
174 to 175	COC1CCc2c(cc(-c3ccccc3)n2-c2ccc(O)cc2)C1 (stereo unspecified)
155 to 156	Cc1oc(-c2ccccc2)nc1CCOc1ccc(C[C@@H](C(=O)O)n2cccc2)cc1
160 to 162	O=C(O)CC1c2cc([N+](=O)[O-])ccc2CCN1C(=O)OCc1ccccc1 (stereo unspecified)
156 to 158	COC(=O)/C=C/n1cnc2ccc(OC(C)C)cc2c1=O
115 to 116	CCn1nc(-c2ccccc2)c(C(=O)OCC(=O)OCc2ccccc2)c(Nc2cnccc2C)c1=O
85 to 88	COc1ccc(C(OC(C)=O)C(COC(C)=O)[N+](=O)[O-])cc1OC (stereo unspecified)

melting point [°C]	SMILES
224 to 226	CC(C)c1ccc(N2CC(=O)N(c3cccc(C(=O)O)c3)C2=O)cc1
84	Cc1cc(-n2ccnc2)c2cccc(OCc3c(Cl)ccc(S(=O)(=O)N4CCC[C@H]4C(=O)N(C)CCN(C)CCCCO)c3Cl)c2n1
207 to 209	Nc1ccc(OCC2CCN(c3ccncc3)CC2)cc1
103 to 104	COC(=O)C(=O)c1ccc(N(C=O)CCOc2ccc3ccccc3c2)cc1
84 to 86	CCC(C)C(C)CNc1cccc(-c2ccnc3c(C(=O)c4cccs4)cnn23)c1 (stereo unspecified)
159 to 161	CC(C)c1nc(COC(N)=O)n(CCOC(N)=O)c1Sc1cc(Cl)cc(Cl)c1
253 to 255	COc1cc(-c2cc(=O)c3cccnc3o2)ccc1O
128 to 130	O=S(=O)(Nc1cc(Br)c(O)c2ccccc12)c1cccs1
112	C[C@H](N=Cc1ccc(OCc2cccc(F)c2)cc1)C(N)=O
194 to 196	CC1CCC(c2ccc(Cl)c(Cl)c2)=NN1S(=O)(=O)c1ccc(I)cc1 (stereo unspecified)
39 to 40	CCOC(=O)CC(=O)c1ccc(F)c(Cl)c1
210 to 211	O=C(Cc1ccccc1C(=O)O)Nc1cccc(/C=C/c2nc(C3CCCCC3)cs2)c1
91 to 92	O=C(CCCBr)N1CC(c2ccc(Cl)cc2)Sc2ccccc21 (stereo unspecified)
221	Cc1cc(=O)c(Oc2ccc(Cl)cc2)c(-c2ccc(S(N)(=O)=O)cc2)o1
249	Cc1cc2cc(CN3CCC(CC(N)=O)CC3)cnc2cc1NC(=O)c1ccc(-c2ccc(F)cc2)cc1
138 to 140	CCCCn1cnc2c(Oc3cccc(OC)c3)nc(Nc3ccc(F)cc3)nc21
115 to 118	C[C@H](O)[C@H]1C(=O)N2C(C(=O)OCc3ccc([N+](=O)[O-])cc3)=C(SCCNC(=O)COc3ccccc3)C[C@H]12
232 to 234	CN1CCC[C@H]1c1cnccc1C(O)(c1ccccc1)c1ccccc1
212 to 215	O=C1Nc2ccccc2C12COc1ccc3c(c12)N(Cc1ncccc1C(F)(F)F)ON3 (stereo unspecified)
137 to 140	Cc1[nH]c2ccccc2c1C(=O)CCCl

melting point [°C]	SMILES
110 to 111	CC(C)c1cn2ccccc2c1S(=O)(=O)c1ccc(OCC2CO2)cc1 (stereo unspecified)
319 to 321	CC(=O)Oc1ccc(-c2nc3c(N)nc(N)nc3nc2N)cc1
140 to 142	CCCCNC(=O)NS(=O)(=O)c1ccccc1S(=O)(=O)OCC(F)(F)F
80 to 81	Oc1c2c(nn1-c1ccccn1)CCCc1ccccc1-2
275 to 277	c1ccc2c(-c3nc(NC4CCCCC4)c4ccccc4n3)nccc2c1
87 to 88	COC(=O)c1cc2c(C)ccc(C)c2n1OC(C)=O
122 to 124	COC(=O)[C@@H]1C[C@H](C(=O)O)Nc2cc(Cl)ccc21 (relative stereo)
106 to 108	O=C(O)CCc1ccccc1C(=O)NCCc1ccccc1
114 to 115	COc1ccc2cccnc2c1N
> 268	Oc1ccc(-c2ncc3ncc(-c4ccoc4)cc3n2)cc1
163 to 164	CC(=O)NCc1ccc(CN2CCN(c3ccc(F)cc3)CC2)cc1N
181 to 182	CC(C)n1cnc2c(NCc3ccccc3)nc(Cl)nc21
57 to 58	O=C1c2ccccc2CN1CCCCSc1ccncc1
140 to 142	CSc1cccc(Cc2sc(NC(C)=O)nc2CO)c1
165 to 166	O=C(O)c1cccc(CSCCNC(=O)c2c(Cl)cccc2Cl)c1
172	Cn1ccnc1Sc1cccc(-c2nc(=O)c3ccccc3s2)n1
131	CC(C)c1occc1S(=O)(=O)c1ccc(O)cc1
111 to 115	CC(C)C[C@@H](C=NNC(N)=O)NC(=O)[C@H](Cc1c[nH]cn1)NC(=O)C(Cc1ccccc1)Cc1ccccc1
